# Entries after “also recorded” stand apart in the source; their conditions may differ. Read-outs that look alike come from different tables or passages of the source. Marks after values point to notes of the source that are not given here.
# Legend:
# Human breast cancer MX-1 = test: Xenograft tumor nude mice screening, MX-1; format: in vivo, BALB/c nu mice; conditions: 30 mg/kg i.p., 10~12 times
# Protocol: (§1) Certificate NO. SCXK (BeiJing) 2005-0013. • Cell lines: The tumor cell lines were passaged and cultured by our Lab, some of them was obtained from ATCC. • The tumor cell lines included: Human breast cancer MX-1 and MCF-7. • Human ovarian cancer A2780, and clear Human ovarian cell cancer ES-2, • Human lung cancer H1975 and A549. Experiment Method: • 1. […] The administration dose and treatment progress was determined based from the preliminary experiments, which had solid effects and the shortest treatment period—the dose of 30 mg/kg/day, and the administration duration time of every lot experiment was not more than 12 days.
# [1] = test system: 60 human tumor cell lines; test: NCI screening of antitumor activity in vitro in 60 human tumor cell lines; format: cell-based
# Description: The experimental results refer to FIGS. 1-12.
# Human lung cancer A549 = test: Xenograft tumor nude mice screening, A549; format: in vivo, BALB/c nu mice
# Protocol: as §1
# [2] = test system: Mice breast cancer cell line (4T1, ATCC CRL2539)
# Protocol: Mice breast cancer cell line (4T1, ATCC CRL2539) was a generous gift from Prof. Wei Liang of the Institute of biophysics, Chinese Academy of Sciences. The cell was cultured in the 1640 medium (Gibco) containing 10% fetal bovine serum (FBS), 1% glutamine and 1% penicillin.
# 4T1 cells in logarithmic phase were collected and the concentration was adjusted to 2×10^6/mL. 4T1 tumors were introduced in female BALB/c mice by injecting subcutaneously into the fourth fat pad area of the right abdominal mammary gland with the dose of 2×10^5/0.1 mL. […] From the 9th day after implantation, tumor growth was measured every 2 days with vernier calipers for determining the long diameter and short diameter of tumor. Tumor volume was calculated by the formula (½)×long diameter×short diameter^2. Drug was withdrawn on the twenty-eight days after the implantation, all mice were then sacrificed and the body weight were measured. The tumors, spleen and lung were removed and weighed. The lungs were fixed in Bouin's fixative for 24 h. The numbers of lung metastasis nodule were counted, the statistics was evaluated using Mann-Whitney U test.
# [3] = test system: Human breast cancer MCF-7; test: Xenograft tumor nude mice screening, MCF-7; format: in vivo, BALB/c nu mice
# Protocol: as §1
# [4] = Toxicity test by single dose, intravenous; format: in vivo, ICR mice
# [5] = test system: clear Human ovarian cell cancer ES-2; test: Xenograft tumor nude mice screening, ES-2; format: in vivo, BALB/c nu mice; conditions: 30 mg/kg i.p., 10~12 times
# Protocol: as §1
# lewis lung cancer [6] = test: Anti-artificial metastasis on Lewis lung cancer in mice (intravenous inoculation); format: in vivo, C57Bl/6 mice
# Protocol: The suspension (0.2 mL/mice, 3×10^5 tumor cell) was inoculated intravenously into the tails of fifty C57Bl/6 mice. […] The tumors, spleen and lung were removed and weighed.
# lewis lung cancer [7] = conditions: 10 mg/kg i.p. once daily
# Protocol: C57Bl/6 mice with lewis lung cancer were sacrificed and the tumor was removed. The tumor cell suspension (5×10^6 cell/mL) was prepared in a sterile condition. The suspension (0.2 mL/mice, 1×10^6 tumor cell) was inoculated subcutaneously into the axillary of 24 C57Bl/6 mice. […] From the 7th day after the implantation, the long diameter and short diameter of tumor was measured every 2 days. Tumor volume was calculated by the formula (½)×long diameter×short diameter^2. Drug was withdrawn on the eighteenth day after the implantation. All mice were then sacrificed and the body weight was measured. The tumors, spleen and lung were removed and weighed. The lungs were fixed in Bouin's fixative for 24 h. The numbers of lung metastasis nodule were counted, and the statistics was evaluated by Mann-Whitney U test.
# [8] = 112.5 mg·kg^−1 i.v. single dose
# Description for Human lung cancer H460: Through cell culture in vitro, the tumor was inoculated on nude mice, the tumor grew and passaged for the experiment use. • Animals: BALB/c nude mice, ♀, 4˜5 weeks old, were obtained from the Experimental Lab, Chinese Academy of Medical Science, Certificate NO. […] Experiment Method:
# The tumor-bearing mice with good tumor growth and good general physical condition were selected and sacrificed. Tumor was isolated in a sterile condition and cut into fragments (diameter for about 2-3 mm) by surgical knife. The fragments were then hypodermically inoculated in posterior axillary of nude mice by means of a trocar.
# After the tumors grew naturally for eight days, the average volume of tumors reaches 130 mm^3. The length and width of tumor was measured using vernier calipers, and divided into groups by the tumor volume.
# The mice were divided into five groups for observation, each groups had eight mice. […] Respective drug was administrated for each group from the grouping day.
# The experiment was terminated 24 hours after the last administration.
# During the experimentation, the tumors sizes (length and width) and body weights of mice were measured once every three days. The tumor volume (TV) and relative tumor volume (RTV) were calculated according to the method for references, and the tumor volume growth tendency chart was plotted.
# At the end of the experiment, the mice were sacrificed. Tumors were removed and weighed, and the inhibition rate of the tumor growth by drugs was calculated. Statistical significance of the tumor weight, tumor volume and RTV level were evaluated by t-test.
# [formula] • (C, average tumor weight of control group; T, average tumor weight of administrated group) • Tumor Volume (TV)=length×width^2/2. • Relative Tumor Volume (RTV) formula: Vt/Vo • (Vo is the volume of TV at the beginning of the grouping, and Vt is the volume of TV at measure time) • Anti-tumor activities were evaluated by Tumor Relative proliferation Rate T/C (%)
# [formula] • Therapeutic effect evaluation standard: T/C (%)>40, was judged as invalid; • T/C (%)≦40, and through statistical evaluation P<0.05, was judged as valid.
smiles,measurement,setting,value
CC(=O)O[C@H]1C(=O)[C@@]2(C)[C@H]([C@H](OC(=O)c3ccccc3)[C@]3(O)C[C@H](OC(=O)[C@H](OC(=O)CCC(=O)NCCCCC(NC(=O)CC[C@H](NC(=O)C(C)NC(=O)/C=C/c4ccc(Cl)cc4)C(N)=O)C(N)=O)[C@@H](NC(=O)c4ccccc4)c4ccccc4)C(C)=C1C3(C)C)[C@]1(OC(C)=O)CO[C@@H]1C[C@@H]2O (stereo partly shown) [MTC-220],Body weight Beginning,"Human lung cancer H460; 5 mg/kg × 25, i.p.",18.0 ± 0.95 g
same,Body weight End,"Human lung cancer H460; 5 mg/kg × 25, i.p.",21.9 ± 1.10 g
same,RTV,"Human lung cancer H460; 5 mg/kg × 25, i.p.",32.0 ± 8.27
same,T/C,"Human lung cancer H460; 5 mg/kg × 25, i.p.",96.2%
same,TGI,"Human lung cancer H460; 5 mg/kg × 25, i.p.",2.15%
same,Tumor volume Beginning,"Human lung cancer H460; 5 mg/kg × 25, i.p.",125 ± 36.8 mm^3
same,Tumor volume End,"Human lung cancer H460; 5 mg/kg × 25, i.p.",3737 ± 591.0 mm^3
same,Tumor weight,"Human lung cancer H460; 5 mg/kg × 25, i.p.",2.91 ± 0.695 g
same,Growth rate of tumor volume compared to negative control,"Human lung cancer H460; 5 mg/kg, 25 days successive administration",not significantly different
same,Body weight Beginning,"Human lung cancer H460; 10 mg/kg × 25, i.p.",18.2 ± 0.70 g
same,Body weight End,"Human lung cancer H460; 10 mg/kg × 25, i.p.",21.4 ± 1.15 g
same,RTV,"Human lung cancer H460; 10 mg/kg × 25, i.p.",27.7 ± 6.81
same,T/C,"Human lung cancer H460; 10 mg/kg × 25, i.p.",83.1%
same,TGI,"Human lung cancer H460; 10 mg/kg × 25, i.p.",17.3%
same,Tumor volume Beginning,"Human lung cancer H460; 10 mg/kg × 25, i.p.",125 ± 43.0 mm^3
same,Tumor volume End,"Human lung cancer H460; 10 mg/kg × 25, i.p.",3274 ± 797.0 mm^3
same,Tumor weight,"Human lung cancer H460; 10 mg/kg × 25, i.p.",2.46 ± 0.624 g
same,Tumor volume inhibition,"Human lung cancer H460; 10 mg/kg, end of the experiment",18.8%
same,Body weight Beginning,"Human lung cancer H460; 20 mg/kg × 25, i.p.",17.8 ± 1.10 g
same,Body weight End,"Human lung cancer H460; 20 mg/kg × 25, i.p.",18.9 ± 2.49 g
same,RTV,"Human lung cancer H460; 20 mg/kg × 25, i.p.",16.7 ± 9.93
same,T/C,"Human lung cancer H460; 20 mg/kg × 25, i.p.",50.1%
same,TGI,"Human lung cancer H460; 20 mg/kg × 25, i.p.",52.9%
same,Tumor volume Beginning,"Human lung cancer H460; 20 mg/kg × 25, i.p.",123 ± 44.6 mm^3
same,Tumor volume End,"Human lung cancer H460; 20 mg/kg × 25, i.p.",1963 ± 641.9 mm^3
same,Tumor weight,"Human lung cancer H460; 20 mg/kg × 25, i.p.",1.40 ± 0.466 g
same,Inhibition of tumor growth (in words),Human breast cancer MX-1,weak
same,50% growth inhibition (GI50) activity,[1],in the same magnitude range as paclitaxel
same,Body weight Beginning,"Human lung cancer A549; 30 mg/kg × 12, i.p.",25.2 ± 1.31 g
same,Body weight End,"Human lung cancer A549; 30 mg/kg × 12, i.p.",26.3 ± 1.51 g
same,RTV,"Human lung cancer A549; 30 mg/kg × 12, i.p.",0.67 ± 0.411
same,Tumor volume Beginning,"Human lung cancer A549; 30 mg/kg × 12, i.p.",95 ± 27.7 mm^3
same,Tumor volume End,"Human lung cancer A549; 30 mg/kg × 12, i.p.",74 ± 55.2 mm^3
same,Tumor weight,"Human lung cancer A549; 30 mg/kg × 12, i.p.",0.062 ± 0.041 g
same,Death,"Human lung cancer A549; 30 mg/kg/day, after drug withdrawal",one mouse died one week after drug withdrawal
same,Tumor observation (in words),"Human lung cancer A549; 30 mg/kg/day, during the administration","became smaller and smaller, but didn't disappear"
same,Lung weight,[2]; 2.5 mg/kg i.p. once daily,153 ± 18 mg
same,Lung weight,[2]; 5.0 mg/kg i.p. once daily,160 ± 15 mg
same,Toxic and side effects,"[2]; 2.5, 5, 10 mg/kg i.p. once daily",no toxic and side effects
same,Lung metastasis nodule numbers compared to vehicle control (in words),"[2]; 2.5, 5, 10 mg/kg, p<0.01, dose dependent",significantly decreased
same,Body weight Beginning,"[3]; 30 mg/kg × 12, i.p.",20.8 ± 1.14 g
same,Body weight End,"[3]; 30 mg/kg × 12, i.p.",23.3 ± 1.22 g
same,RTV,"[3]; 30 mg/kg × 12, i.p.",0**
same,T/C,"[3]; 30 mg/kg × 12, i.p.",0%
same,TGI,"[3]; 30 mg/kg × 12, i.p.",100%
same,Tumor volume Beginning,"[3]; 30 mg/kg × 12, i.p.",142 ± 73.5 mm^3
same,Tumor volume End,"[3]; 30 mg/kg × 12, i.p.",0 mm^3
same,Tumor weight,"[3]; 30 mg/kg × 12, i.p.",0** g
same,Tumor observation (in words),"[3]; 30 mg/kg/day, 10 administrations, then withdrawal",disappeared one after another; also recorded: disappeared after successive administration for 10 times
same,Anatomical examination of organs,[4]; [8],no sign of abnormal changes
same,Body weight compared with control group,[4]; [8],not significantly different
same,Symptoms after injection,[4]; [8],"voluntary activities of mice in administered group were reduced, some mice showed jumping symptoms"
same,Time to recovery from symptoms,[4]; [8],about 10 min
same,Death,"[4]; 112.5 mg·kg^−1 i.v. single dose, 14 days observation",no death occured
same,MTD at 14 days,"[4]; mouse, in vivo, 112.5 mg·kg^−1, single intravenous injection, ICR mice",> 112 mg/kg
same,Inhibition of tumor growth (in words),[5],"at certain degree, but didn't attain the valid standard"
same,Body weight,lewis lung cancer [6]; 2.5 mg/kg i.p.,19.0 ± 1.9 g
same,Lung weight,lewis lung cancer [6]; 2.5 mg/kg i.p.,334 ± 217 mg
same,Body weight,lewis lung cancer [6]; 5 mg/kg i.p.,18.4 ± 2.3 g
same,Lung weight,lewis lung cancer [6]; 5 mg/kg i.p.,492 ± 353 mg
same,Lung weight,lewis lung cancer [6]; 10 mg/kg i.p.,393 ± 326 mg
same,Lung metastasis nodule number compared to vehicle control (in words),"lewis lung cancer [6]; 2.5, 5, 10 mg/kg, dose dependent",significantly decreased
same,Lung weight,lewis lung cancer [7],152 ± 37 mg
same,Toxic and side effect,lewis lung cancer [7],no toxic and side effect

# Source: US9085605B2, “Chemical synthesis and anti-tumor and anti-metastatic effects of dual functional conjugate” (Shenzhen Salubris Pharmaceuticals Co., Ltd., priority 2010, dated 2015)
